From the supplement of paper PMC4858399
Where a name gives a salt, the structure may show the parent alone.

Legend:
Conditions in all cases: exposure time 48 h
[1] = tested on: Caenorhabditis elegans N2; experiment: AC50 for larval growth inhibition (Hill fit); higher = less potent
How it was run: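 After 48 h at 20°C in K-medium with killed OP50, 1% DMSO and 0.5–200 µM chemical, synchronised C. elegans N2 L1 larvae (50 per well, 96-well plates) were sized individually as extinction on a COPAS Biosort. These values were log-transformed and averaged per well, and wells with fewer than 10 worms were excluded. The AC50 was derived from a constrained Hill fit by weighted genetic-algorithm regression, and out-of-range values are censored.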

[2] = tested on: Caenorhabditis elegans N2; experiment: lowest effective concentration for larval growth inhibition (size below effect threshold); higher = less potent
How it was run: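 Worm size was taken as per-worm extinction on the Biosort, log-transformed and turned into well means. The larvae (C. elegans N2, L1 stage, 50 per 96-well) had spent 48 h at 20°C in K-medium with killed bacteria, 1% DMSO and 0.5, 1, 5, 10, 50, 100 or 200 µM chemical. The lowest effective concentration marks the first dose where the plate-adjusted mean size drops under a cutoff and remains under it at every higher dose; the cutoff is 5.665.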

[3] = tested on: Caenorhabditis elegans N2; experiment: mean nematode size ln(EXT) after 48 h, plate-adjusted (DMSO control set to 6) (ln(EXT), control-adjusted); higher = larger nematodes / less growth inhibition
How it was run: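 Synchronised C. elegans N2 L1 larvae (50 per well, 4–6 wells per treatment) were grown for 48 h at 20°C in K-medium with killed OP50, 1% DMSO and 0.5–200 µM chemical. The Biosort measured each worm's extinction, and debris was removed by a growth model. Values were natural-logged and averaged per well. Mean size was then plate-adjusted by subtracting the vehicle control mean and adding 6.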

Row | Compound | AC50 for larval growth inhibition [1] [µM] | lowest effective concentration [2] [µM] | mean nematode size ln(EXT) (ln) ([3]; 0.5 µM) | mean nematode size ln(EXT) (ln) ([3]; 1 µM) | mean nematode size ln(EXT) (ln) ([3]; 5 µM) | mean nematode size ln(EXT) (ln) ([3]; 10 µM) | mean nematode size ln(EXT) (ln) ([3]; 50 µM) | mean nematode size ln(EXT) (ln) ([3]; 100 µM) | mean nematode size ln(EXT) (ln) ([3]; 200 µM)
1 | CN(C)C(=S)SSC(=S)N(C)C [Thiram] | 48.9 | 50 | 6 | 6.02 | 6.06 | 6.13 | 5.55 | 5.36 | 5.13
2 | c1ccc2c(c1)-c1cccc3c1c-2cc1ccccc13 [Benzo[b]fluoranthene] | < 0.5 | ≤ 0.5 | 5.22 | 4.39 | 4.09 | 4.15 | 4.17 | 5.53 | 4.32
3 | CC[C@@H]1C[C@H](N(Cc2cc(C(F)(F)F)cc(C(F)(F)F)c2)C(C)=O)c2cc(C(F)(F)F)ccc2N1C(=O)OC(C)C | > 200 | 200 | 5.74 | 6.01 | 5.87 | 5.9 | 5.83 | 5.79 | 5.52
4 | CC1(C(=O)Nc2ccc(O)c(Cl)c2Cl)CCCCC1 [Fenhexamid] | 112 | 200 | 5.86 | 5.87 | 5.88 | 5.96 | 6 | 5.86 | 4.71
5 | CCCCC(CC)COC(=O)CCCCC(=O)OCC(CC)CCCC (stereo unspecified) [Di(2-ethylhexyl)adipate] | > 200 | 200 | 5.87 | 5.8 | 5.73 | 5.76 | 5.75 | 5.82 | 5.55
6 | CC(C)=CCC/C(C)=C\CO [cis-3,7-Dimethyl-2,6-octadien-1-ol] | > 200 | 200 | 5.8 | 5.76 | 5.79 | 5.75 | 5.78 | 5.69 | 5.63
7 | CCOC1Oc2ccc(OS(C)(=O)=O)cc2C1(C)C (stereo unspecified) [Ethofumesate] | 198 | 200 | 6.01 | 6.03 | 6.14 | 6.03 | 6.14 | 6.11 | 5.44
8 | CNCc1cc(F)ccc1Oc1ccc(Cl)c(Cl)c1 | 39.1 | 10 | 5.86 | 5.78 | 5.86 | 5.24 | 4.33 | 4.11 | 3.59
9 | Cn1sc(Cl)cc1=O [5-Chloro-2-methyl-3(2H)-isothiazolone] | > 200 | 200 | 5.96 | 5.93 | 5.95 | 6 | 5.9 | 5.82 | 5.55
10 | CCCOc1sc(C(=O)N2CCC(c3cc(CN)ccc3F)CC2)c(C)c1Br | 9.86 | 5 | 5.68 | 5.67 | 5.54 | 4.86 | 3.73 | 3.92 | –
11 | O=C1O[C@H]([C@@H](O)CO)C([O-])=C1O.[Na+] [(+)-Sodium L-ascorbate] | 132 | 50 | 5.84 | 5.88 | 5.78 | 5.85 | 5.29 | 5.05 | 3.96
12 | CCCCOC(=O)CCCCC(=O)OCCCC [Dibutyl hexanedioate] | 58.5 | 50 | 5.86 | 5.83 | 5.8 | 5.76 | 5.27 | 3.38 | 3.38
13 | Oc1c(Cl)c(Cl)c(Cl)c(Cl)c1Cl [Pentachlorophenol] | 146 | 50 | 5.82 | 5.94 | 5.92 | 5.89 | 5.6 | 5.01 | 4.2
14 | CN1CCN(Cc2cc(-c3ccc4[nH]c(=O)oc4c3)co2)[C@@H](c2ccc(F)cc2)C1 | 114 | 10 | 5.7 | 5.65 | 5.75 | 5.61 | 5.3 | 4.92 | 3.58
15 | CCOC(=O)C(C)Oc1ccc(Oc2cnc3cc(Cl)ccc3n2)cc1 (stereo unspecified) [Quizalofop-ethyl] | 84.1 | 50 | 5.77 | 5.9 | 5.82 | 5.91 | 5.33 | 4.78 | 4.4
16 | C=CC1(C)OC(=O)N(c2cc(Cl)cc(Cl)c2)C1=O (stereo unspecified) [Vinclozolin] | 1.18 | 1 | 5.76 | 5.01 | 3.56 | 3.46 | 3.32 | 3.11 | 3.61
17 | Oc1ccc2ccc3cccc4ccc1c2c34 [1-Hydroxypyrene] | 16 | 50 | 6 | 5.88 | 5.84 | 5.75 | 3.72 | 3.8 | 3.87
18 | CCCCN(CCCC)SN(C)C(=O)Oc1cccc2c1OC(C)(C)C2 [Carbosulfan] | 60.2 | 1 | 5.76 | 5.51 | 5.04 | 4.86 | 5.15 | 4.44 | 4
19 | O=S(=O)(O)C(F)(F)C(F)(F)C(F)(F)C(F)(F)C(F)(F)C(F)(F)C(F)(F)C(F)(F)F [Heptadecafluorooctanesulfonic acid potassium salt] | 11.4 | ≤ 0.5 | 5.46 | 5.57 | 5.12 | 4.63 | 3.8 | 3.62 | 3.47
20 | CCCN(CCC)c1c([N+](=O)[O-])cc(C(F)(F)F)cc1[N+](=O)[O-] [Trifluralin] | 53 | 200 | 5.85 | 6.06 | 6.05 | 6 | 5.03 | 6.06 | 3.63
21 | NC(=O)Cn1c(=O)cc(CCN2CCN(c3nccc4sccc34)CC2)c2ccc(F)cc21 [Trelanserin] | > 200 | 200 | 5.9 | 5.78 | 5.75 | 5.81 | 5.71 | 5.7 | 5.54

Row | Compound | AC50 for larval growth inhibition [1] [µM] | lowest effective concentration [2] [µM] | mean nematode size ln(EXT) (ln) ([3]; 0.5 µM) | mean nematode size ln(EXT) (ln) ([3]; 1 µM) | mean nematode size ln(EXT) (ln) ([3]; 5 µM) | mean nematode size ln(EXT) (ln) ([3]; 10 µM) | mean nematode size ln(EXT) (ln) ([3]; 50 µM) | mean nematode size ln(EXT) (ln) ([3]; 100 µM) | mean nematode size ln(EXT) (ln) ([3]; 200 µM)
22 | Nc1ccc(N=Nc2ccccc2)cc1 [4-Aminoazobenzene] | 31.4 | 5 | 5.63 | 5.75 | 5.62 | 5.49 | 4.06 | 3.92 | 3.23
23 | O=C(O)Cn1c(=O)n(Cc2ccc(Br)cc2F)c(=O)c2ccc(Cl)cc21 [Zenarestat] | > 200 | 200 | 5.91 | 5.87 | 5.84 | 6.11 | 5.77 | 5.77 | 5.4
24 | Nn1cnnc1 [4-Amino-4H-1,2,4-triazole] | > 200 | 200 | 5.81 | 5.85 | 5.83 | 5.8 | 5.57 | 5.78 | 5.36
25 | CCN(CC)C(=O)C(C)Oc1cccc2ccccc12 (stereo unspecified) [Napropamide] | 97.3 | 100 | 5.97 | 5.95 | 5.93 | 6 | 6.01 | 5.62 | 5.43
26 | CC[C@H](C)[C@H]1O[C@]2(C=C[C@@H]1C)C[C@@H]1C[C@@H](C/C=C(\C)[C@@H](O[C@H]3C[C@H](OC)[C@@H](O[C@H]4C[C@H](OC)[C@@H](O)[C@H](C)O4)[C@H](C)O3)[C@@H](C)/C=C/C=C3\CO[C@@H]4[C@H](O)C(C)=C[C@@H](C(=O)O1)[C@]34O)O2.CO[C@H]1C[C@H](O[C@H]2[C@H](C)O[C@@H](O[C@@H]3/C(C)=C/C[C@@H]4C[C@@H](C[C@]5(C=C[C@H](C)[C@@H](C(C)C)O5)O4)OC(=O)[C@@H]4C=C(C)[C@@H](O)[C@H]5OC/C(=C\C=C\[C@@H]3C)[C@]54O)C[C@@H]2OC)O[C@@H](C)[C@@H]1O [Abamectin] | < 0.5 | ≤ 0.5 | 3.68 | 3.31 | 3.37 | 3.26 | 3.38 | 3.35 | 3.24
27 | CCOc1ccc2c(c1)C(C)=CC(C)(C)N2 [Ethoxyquin] | > 200 | 100 | 5.78 | 5.74 | 5.77 | 5.78 | 5.71 | 5.61 | 5.17
28 | NCc1cccc(C2CCN(C(=O)c3ccc(C#Cc4ccccc4F)o3)CC2)c1 | 31.6 | 5 | 5.96 | 5.71 | 5.61 | 5.42 | 4.45 | 3.28 | –
29 | CCCOC(=O)c1cc(O)c(O)c(O)c1 [Propyl gallate] | 126 | 200 | 5.91 | 5.94 | 6.05 | 5.78 | 5.95 | 5.81 | 5.54
30 | CS(=O)(=O)NC(=O)c1cc(Oc2ccc(C(F)(F)F)cc2Cl)ccc1[N+](=O)[O-] [Fomesafen] | 180 | 200 | 5.93 | 5.95 | 5.95 | 5.95 | 5.89 | 6 | 5.52
31 | CCNc1nc(Cl)nc(NC(C)(C)C)n1 [Terbuthylazin] | > 200 | 50 | 6 | 5.99 | 5.96 | 5.95 | 5.65 | 5.58 | 5.22
32 | O=[N+]([O-])/N=C1\NCCN1Cc1ccc(Cl)nc1 [Imidacloprid] | 111 | 100 | 5.78 | 6.02 | 6.07 | 6.08 | 5.96 | 5.54 | 4.86
33 | CCNP(=S)(OC)O/C(C)=C/C(=O)OC(C)C (stereo unspecified) [Propetamphos] | > 200 | 50 | 5.88 | 5.88 | 5.75 | 5.71 | 4.95 | 5.45 | 3.98
34 | CCc1cc(SCc2sc(-c3ccc(C(F)(F)F)cc3)nc2CN2CCN(c3ccc(OC)cc3)CC2)ccc1OCC(=O)O | 9.23 | 5 | 6 | 5.67 | 5.57 | 4.69 | 4.47 | 4.29 | 3.99
35 | CCCCCCCCCCCCCCCCOS(=O)(=O)O [Sodium cetyl sulfate] | 74.7 | 50 | 5.79 | 6.01 | 5.91 | 5.92 | 5.38 | 5 | 4.68
36 | O=C(O)c1ccccc1-n1cc(C(=O)O)c(=O)c2cc(Nc3c(F)cc(F)cc3Cl)c(Cl)cc21 | > 200 | 200 | 5.87 | 5.89 | 5.95 | 5.9 | 5.94 | 5.85 | 5.63
37 | CCCCCCCCOc1ccc(C(=O)c2ccccc2)c(O)c1 [2-Hydroxy-4-(octyloxy)benzophenone] | 19.2 | 50 | 5.91 | 5.98 | 5.92 | 5.95 | 5.61 | 5.56 | 5.64
38 | COP(=S)(OC)SCn1nnc2ccccc2c1=O [Azinphos-methyl] | 170 | 50 | 6.09 | 6.12 | 6.04 | 5.95 | 5.61 | 5.49 | 3.9
39 | Cc1ccc2ncccc2c1 [6-Methylquinoline] | > 200 | 200 | 5.98 | 5.83 | 5.87 | 5.76 | 5.74 | 5.67 | 5.52
40 | CCCCN1C(=O)[C@@H]([C@H](O)C2CCCCC2)NC(=O)C12CCN(Cc1ccc(Oc3ccc(C(=O)O)cc3)cc1)CC2 [Aplaviroc hydrochloride] | > 200 | 200 | 5.87 | 5.82 | 5.8 | 5.88 | 5.87 | 5.74 | 5.55
41 | c1ccc2cc3c(ccc4ccccc43)cc2c1 [Benz[a]anthracene] | 24.9 | 1 | 5.89 | 4.38 | 5.22 | 5.01 | 4.59 | 4.58 | 3.32
42 | CCOC(=O)COc1cc(-n2ncc(C(F)(F)F)c(C)c2=O)c(F)cc1Cl [Flufenpyr-ethyl] | > 200 | 200 | 5.85 | 5.76 | 5.8 | 5.87 | 5.88 | 5.91 | 5.57
